Results from ChEMBL document CHEMBL1250421, “Synthesis of 5-deoxy-beta-D-galactofuranosides as tools for the characterization of beta-D-galactofuranosidases” (Bioorg Med Chem, 2010).

target: not listed separately; test: Inhibition of Penicillium fellutanum exo-beta-D-galactofuranosidase by spectrophotometry

| SMILES | IC50 [µM] |
| --- | --- |
| O=C1O[C@@H]([C@H](O)CO)[C@H](O)[C@H]1O | 20 |
| CO[C@H]1CNC(=S)N1[C@@H]1O[C@@H]([C@H](O)CO)[C@H](O)[C@H]1O | 100 |
| OC[C@@H](O)[C@@H]1O[C@@H](n2cc[nH]c2=S)[C@H](O)[C@H]1O | 1050 |

Next, values leading:

| IC50 [µM] | SMILES |
| --- | --- |
| 600 | O=[N+]([O-])c1ccc(S[C@@H]2O[C@@H]([C@H](O)CO)[C@H](O)[C@H]2O)cc1 |
| 80 | Nc1ccc(S[C@@H]2O[C@@H]([C@H](O)CO)[C@H](O)[C@H]2O)cc1 |

tested on: Penicillium fellutanum; test: Activity of Penicillium fellutanum exo-beta-D-galactofuranosidase by spectrophotometry

| Km [µM] | SMILES |
| --- | --- |
| 3700 | OC[C@@H](O)[C@@H]1O[C@@H](OCc2ccccc2)[C@H](O)[C@H]1O |
| 310 | O=[N+]([O-])c1ccc(O[C@@H]2O[C@@H]([C@H](O)CO)[C@H](O)[C@H]2O)cc1 |
| 2600 | CO[C@@H]1O[C@@H]([C@H](O)CO)[C@H](O)[C@H]1O |
